Test results reported in paper PMC11358582, “Discovery of a potential bladder cancer inhibitor CHNQD-01281 by regulating EGFR and promoting infiltration of cytotoxic T cells” (Marine Life Science & Technology, 2024).
Values after ≈ are worked out from the molar mass of the structure shown.

Columns and labels:
[1] = system: human hepatocyte cell line L-02; assay: MTT cell proliferation assay; type: cell-based; settings: L-02, MTT, 72 h
Method: (§1) Human tumor cell lines Eca-109, BEL-7402, BxPC-3, HCT-116, HT-29, T24, HCT-8, SGC-7901, DLD-1, TE-1, BT-549, MGC-803 and human hepatocyte cell line L-02 were cultured in Roswell Park Memorial Institute (RPMI) 1640. HuH-7 and SW-480 were cultured in Dulbecco’s modified Eagle’s medium (DMEM). J82, HepG2, Hela, U87 were cultured in Minimum Essential Medium (MEM). Murine bladder cancer cell line, MB49, was cultured in DMEM. The above-mentioned culture medium was provided by GIBCO (Grand Island, USA), contained 10% fetal bovine serum (PAN, Germany), 10 mg/mL of streptomycin, and 10 kU/mL penicillin (Beyotime, China).
(§2) Cells were seeded in 96-well plates and incubated with indicated concentrations of CHNQD-01281 for indicated periods. Next, medium was discarded and MTT (5 mg/mL) was added to each well. The cells were incubated at 37 °C for another 4 h. After that, supernatant was discarded, and DMSO was added and incubated at 37 °C for 15 min. Finally, absorbance was measured at 570 nm (Molecular Devices, USA).
Thus, the bladder cancer cell lines J82 and T24 were further investigated and treated by CHNQD-01281 under gradient concentrations (0.031−1.00 µmol/L) and times (24, 72 and 120 h) to measure proliferation activities (Fig. 2B). However, the inhibition of T24 or J82 cell lines by CHNQD-01281 was less than 50% even at the highest concentration of 1 µmol/L for 24 h. […] Therefore, CHNQD-01281 has a higher selectivity index compared to BFA.

T24 cells = assay: MTT cell proliferation assay; type: cell-based, human
Method: as §1, §2
To investigate whether CHNQD-01281 had selective inhibitory effect on cancer cell lines, a variety of human tumor cell lines were assayed by MTT, such as bladder cancer cell lines (J82 and T24), colorectal cancer cell lines (HCT-116, HT-29, HCT-8, DLD-1 and SW-480), cervical cancer cell line (Hela), esophageal cancer cell lines (TE-1 and Eca-109), breast cancer cell line (BT-549), gastric carcinoma cell lines (MGC-803 and SGC-7901), glioma cell line (U87), pancreatic carcinoma cell line (BxPC-3) and hepatocellular carcinoma cell lines (Hep G2, BEL-7402 and HuH-7) (Fig. 2A).

[2] = Solubility in selected aqueous solutions; type: physicochemical
Excerpt: The problem of poor water solubility is one of the factors that seriously restricts the preclinical application of BFA. Therefore, from the perspective of pharmaceutics, it is of great application value to explore safe and effective methods to improve its solubility. Based on the previous screening of commonly used solvents, solubilizers and co-solvents for BFA and its derivatives, we explored the solubility of CHNQD-01281, which was compared and assessed in selected aqueous solutions (Table 1). Saline or PBS were commonly used solvents, but the solubility of BFA or CHNQD-01281 was less than 1 mg/mL when used alone. No significant improvement in solubility was observed after the addition of DMSO or PEG400. […] More importantly, the solution system of CHNQD-01281 with saline/DMSO/solutol HS-15 (85/5/10) can fully meet the needs of follow-up experiments in vivo, such as pharmacodynamics, pharmacokinetics and safety evaluation.

SMILES: C[C@H]1CCC/C=C/[C@@H]2C[C@H](O)C[C@H]2[C@H](O)/C=C/C(=O)O1 [BFA, Brefeldin A, reference compound]
- IC50 [1]: 0.042 µM
- IC50 (T24 cells; Homo sapiens, T-24, T24, MTT, 72 h): 0.022 µM
- SI (selectivity index) (T24 cells; L-02 versus T24): 1.91
- solubility ([2]; 25 °C, pH 7.4, aqueous with cosolvent or surfactant or cyclodextrin, No. 2: Saline/DMSO 95/5, pH 7.4, 25 °C): < 1 mg/mL
- solubility ([2]; 25 °C, pH 7.4, aqueous with cosolvent or surfactant or cyclodextrin, No. 3: PBS/DMSO 95/5, pH 7.4, 25 °C): < 1 mg/mL
- solubility ([2]; 25 °C, pH 7.4, aqueous with cosolvent or surfactant or cyclodextrin, No. 4: Saline/PEG400 95/5, pH 7.4, 25 °C): < 1 mg/mL
- solubility ([2]; 25 °C, pH 7.4, aqueous with cosolvent or surfactant or cyclodextrin, No. 5: Saline/PEG400 80/20, pH 7.4, 25 °C): < 1 mg/mL
- solubility ([2]; 25 °C, pH 7.4, aqueous with cosolvent or surfactant or cyclodextrin, No. 6: Saline/DMSO/solutol HS-15 85/5/10, pH 7.4, 25 °C): 1 to 1.5 mg/mL (≈ 3.57 to 5.35 mM)
- solubility ([2]; 25 °C, pH 7.4, aqueous with cosolvent or surfactant or cyclodextrin, No. 7: Saline/solutol HS-15 95/5, pH 7.4, 25 °C): < 1 mg/mL
- solubility ([2]; 25 °C, pH 7.4, aqueous with cosolvent or surfactant or cyclodextrin, No. 8: Saline/solutol HS-15 90/10, pH 7.4, 25 °C): < 1 mg/mL
- solubility ([2]; 25 °C, pH 7.4, saline or isotonic, No. 1: Saline (0.9% NaCl) 100, pH 7.4, 25 °C): < 1 mg/mL
- solubility ([2]; Saline or PBS used alone): < 1 mg/mL
